Assay results: patent US20250381307A1, “RETRO-AAV AND USE IN TREATING NEURODEGENERATIVE DISEASES” (priority 2023, published 2025)

Assays:
rM3Ds = biological target: T1, rM3Ds (Rattus norvegicus, UniProt P08483, A177S/A238G/A489L/DEL261-437/DEL441-478/E258S/I253V/I483M/INS256[…]/K178L/K182A/K255R/K484R/K486H/L173F/L482A/M480V/R171S/R176Q/R179M/S481M/T174R/T181R/T257A/Y148C); experiment: 6-OHDA parkinsonian mouse model: open field and rotarod; type: in vivo, C57/BL6 mice; parameters: rM3Ds; 2A-EYFP (C); host or cells: AAV8R12-transduced striatal D1-MSNs of mice and cynomolgus macaques (in vivo and acute slices); settings: AAV8R12-G88P7-rM3Ds-2A-EYFP, 6-OHDA mice
T1 sequence (P08483 with tags, fused parts or gaps Y148C/R171S/L173F/T174R/R176Q/A177S/K178L/R179M/T181R/K182A/A238G/I253V/K255R/INS256[…]/T257A/E258S/DEL261-437/DEL441-478/M480V/S481M/L482A/I483M/K484R/K486H/A489L): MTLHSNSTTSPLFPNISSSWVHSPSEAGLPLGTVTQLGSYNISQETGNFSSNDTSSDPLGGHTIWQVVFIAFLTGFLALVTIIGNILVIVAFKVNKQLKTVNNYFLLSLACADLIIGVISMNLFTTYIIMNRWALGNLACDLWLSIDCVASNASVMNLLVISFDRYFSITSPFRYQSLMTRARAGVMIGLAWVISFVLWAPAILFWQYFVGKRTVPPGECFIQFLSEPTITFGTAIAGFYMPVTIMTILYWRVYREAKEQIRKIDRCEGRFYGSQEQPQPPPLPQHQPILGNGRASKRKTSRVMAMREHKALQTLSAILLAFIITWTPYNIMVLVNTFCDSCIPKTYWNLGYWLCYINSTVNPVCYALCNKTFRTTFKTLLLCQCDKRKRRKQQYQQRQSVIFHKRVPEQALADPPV
Procedure: Rodent Parkinson's disease mice models were created through bilateral injection of 6-OHDA using the same methods as described in virus injections (Example 3). A total volume of 1 ul 6-OHDA (5 mg/ml, dissolved in sterile saline containing 0.02% ascorbic acid, Sigma) was injected into the striatum at a speed of 100 nL/min. The coordinates for striatum were 0.5 mm anterior, 1.5 mm lateral, 3.2 mm ventral to the bregma. A premedication of desipramine (25 mg/kg, Sigma) was administered to animals prior to injections of 6-OHDA, in order to increase the selectivity and efficacy of 6-OHDA-induced lesions. Mice were supplemented with DietGel (ClearH2O) for one-week post-surgery. All staining and behavioral experiments were performed at least 14 days following surgery, when the amount of dopamine depletion was maximal and stable.
Mice were individually handled for 10-20 seconds per day for at least 5 days to habituate them to the experimenter. The open field test was conducted in a test apparatus (50 cm×50 cm×50 cm) with an HD digital camera (Sony) positioned above the arena. On day one, mice were habituated to the apparatus for 10 minutes. […] The behavioral data were analyzed with ANY-maze software (Stoelting Co.).
Mice were individually handled as described in the open field test. […] Latency to fall for each trial was automatically recorded by the apparatus. […]

hM3Dq = hM3Dq (Homo sapiens, UniProt P20309, A239G/Y149C); experiment: Rotation behavior and nigral c-Fos in mice after unilateral nigral AAV8R12-G88P3-HA-hM3Dq and CNO; type: in vivo, C57BL/6J mice; parameters: host or cells: AAV8R12-transduced neurons (striatal D1-MSNs, some SNr neurons) of mice and macaques; settings: for rotation behavior (FIG. 6C): control vector AAV8R12-G88P3-EYFP, n=5
Sequence of hM3Dq (P20309 whole entry Y149C/A239G): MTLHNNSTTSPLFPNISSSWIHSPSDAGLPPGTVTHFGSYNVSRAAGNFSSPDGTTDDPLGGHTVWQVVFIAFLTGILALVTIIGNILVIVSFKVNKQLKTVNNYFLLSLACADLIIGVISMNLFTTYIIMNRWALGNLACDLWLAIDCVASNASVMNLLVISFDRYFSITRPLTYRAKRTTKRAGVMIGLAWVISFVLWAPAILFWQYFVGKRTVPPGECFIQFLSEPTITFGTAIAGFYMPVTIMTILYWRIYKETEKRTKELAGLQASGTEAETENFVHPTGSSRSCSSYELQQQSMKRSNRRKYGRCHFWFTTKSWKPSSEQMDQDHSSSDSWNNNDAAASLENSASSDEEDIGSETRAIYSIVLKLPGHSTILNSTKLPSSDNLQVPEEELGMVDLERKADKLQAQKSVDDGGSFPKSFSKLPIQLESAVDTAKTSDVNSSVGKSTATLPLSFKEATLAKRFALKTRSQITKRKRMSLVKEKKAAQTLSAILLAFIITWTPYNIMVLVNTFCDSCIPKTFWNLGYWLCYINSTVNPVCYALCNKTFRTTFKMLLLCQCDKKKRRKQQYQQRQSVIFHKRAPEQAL
Procedure: Mice were anesthetized with sodium pentobarbital (Nembutal; 80 mg/kg, i.p.), and then placed into a stereotaxic device (KOPF). Eye cream was applied on both corneas to avoid dehydration. The skull above the targeted areas was thinned with a dental drill and carefully removed. Injections were conducted with a 10 μL syringe connected to a 33-Gauge needle (Neuros; Hamilton), using a microsyringe pump (Legato 130, KD Scientific). A total volume of 200 nL virus was injected into the SNr at a speed of 20 nL/min. The coordinates for the SNr were 3.4 mm posterior, 1.3 mm lateral, 4.8 mm ventral to the bregma.
Mice that were used in the behavioral experiments were then implanted with guide cannulas (KOPF) unilaterally aiming at the dorsomedial striatum (0.5 mm anterior, 1.5 mm lateral, 3.5 mm ventral to the bregma). The cannulas were fixed to the skull with dental cement. Stainless steel obturators were inserted into the guide cannulas and were replaced every other day to maintain the patency until infusions were made. Mice were allowed to recover from the surgery for at least 3 weeks before further studies.
Mice were individually handled for 10-20 seconds per day for at least 5 days to habituate them to the experimenter. The open field test was conducted in a test apparatus (50 cm×50 cm×50 cm) with an HD digital camera (Sony) positioned above the arena. On day one, mice were habituated to the apparatus for 10 minutes. On day 2, mice were administrated saline (0.1 mL i.p. or 200 nL intracranially [i.e.] through the guide cannulas). On day 3, mice were administrated with Clozapine-N-oxide (CNO, Hello Bio, HB1807; 0.3 mg/kg i.p. or 200 nL at 100 μM i.e.). All behavioral tests were conducted 30 minutes after injection. During the test, mice were allowed to freely explore the apparatus for 10 minutes. The behavioral data were analyzed with ANY-maze software (Stoelting Co.).

## C[N+]1([O-])CCN(C2=Nc3cc(Cl)ccc3Nc3ccccc32)CC1 [CNO, clozapine N-oxide]
rM3Ds; CNO
  motor skill in rotarod test: partially rescued the motor skill deficit
rM3Ds; systemic CNO
  spontaneous movement in an open field: drastically reversed the dyskinesia-like phenotype of PD mice
hM3Dq; CNO i.p., AAV8R12-G88P3-HA-hM3Dq, n=8 mice, mean±SEM, saline 45.25±4.128
  rotations (FIG. 6A; ipsiversive rotations induced): 87.84±4.666
hM3Dq; CNO i.p., saline 47.08±10.5
  rotation behavior (FIG. 6C): 44.72±10.89
hM3Dq; CNO intracranial into dorsomedial striatum, AAV8R12-G88P3-HA-hM3Dq, n=8, saline 49.63±5.879
  rotations (FIG. 6A; contraversive rotations induced): 15.08±3.435
hM3Dq; CNO intracranial, hM3Dq
  nigral c-Fos+ cells: No significant changes in the number of nigral c-Fos+ cells
hM3Dq; CNO intracranial, saline 54.22±8.766
  rotation behavior (FIG. 6C): 61.39±5.774
hM3Dq; CNO intraperitoneal, hM3Dq
  c-Fos+ cells in the right SNr: significant increase in c-Fos+ cells
